Patent US11730746B2, “17beta-heterocyclyl-digitalis like compounds for the treatment of heart failure” (priority 2018, dated 2023)

Key:
[1] = test system: guinea pig isolated cardiomyocytes; assay: Action potential measurements in isolated ventricular cardiomyocytes; format: cell-based; details: 100 nM
Description: The compounds were characterized for their effect on (i) SR Ca^2+ uptake function, (ii) action potential (AP) in myocytes freshly dissociated from guinea-pig ventricles by retrograde coronary perfusion with enzymatic solution (Rocchetti M et al. J Pharmacol Exper Therap 2005; 313(1):207-215).
The action potential (AP) contour provides a first-line estimate of the integrated function of membrane ion channels and its changes may disclose ancillary actions, potentially resulting in untoward effects of the compound. To increase sensitivity of the AP contour as a reporter, effects on the rate-dependency of AP parameters were also tested, thus providing a multiparametric (more stringent) approach.
APs were recorded in normal Tyrode's solution at 36.5° C. The following parameters were measured at 4 stimulation rates (0.5-1-2-4 Hz): diastolic membrane potential (Edlast), maximum depolarization velocity (dV/dtmax), action potential duration (APD at 90%, 50% and 20% of repolarization), time constant (τ) of APD adaptation after a step change in stimulation rate. Short term APD variability (STV) during steady-state pacing, an index of repolarization stability, was measured as the sum of absolute ortogonal deviations from the identity line in the APDnfAPDn+1 plot (Poincare plot) (Altomare C et al, Circulation A&E 2015; 8:1265-1275).

[2] = target: T1, Monoamine Oxidase MAO-B (Homo sapiens, UniProt P27338); assay: Eurofins panel 140120; format: biochemical
T1 construct: Eurofins 140120
Procedure: (§1) Radioligand binding to a panel of receptors was carried out by Eurofins on crude membrane preparations according to published procedures and by using appropriate reference standard (Eurofins, CVie 101 compound code PT #1207859, study #AB76416, quote #68407-1, for Cvie Therapeutics Limited, Taiwan (R.OC.) on Mar. 5, 2017). CVie 101 was tested at the concentration of 10 μM. No significant interaction was documented, except for Sodium Channel, site 2 from rat (cat #279510), where a significant response (≥50%) was noted (Table 7).

[3] = target: T2, Adrenergic β1 (Homo sapiens, UniProt P08588); assay: Receptor binding 204010
T2 construct: Eurofins 204010; host or cells: crude membrane preparation
Procedure: as §1

[4] = target: T3, Aldosterone (Rattus norvegicus, UniProt P22199); assay: Receptor binding 204600
T3 construct: Eurofins 204600
Procedure: as §1

[5] = test system: Calcium Channel L-type, Dihydropyridine; assay: Receptor binding 214600; set-up: species or system rat; details: 10 μM
Procedure: as §1

[6] = target: T4, Muscarinic M2 (Homo sapiens, UniProt P08172); assay: Receptor binding 252710
T4 construct: Eurofins (contract assay) 252710
Procedure: as §1

[7] = target: T5, Opiate μ(OP3, MOP) (Homo sapiens, UniProt P35372); assay: Receptor binding 260410
T5 construct: Eurofins (contract assay) 260410
Procedure: as §1

[8] = target: T6, hERG potassium channel (Homo sapiens, UniProt Q12809); assay: Receptor binding 265900; details: crude membrane preparations
T6 construct: Eurofins (contract assay) 265900
Procedure: as §1

T5 sequence (P35372 whole entry): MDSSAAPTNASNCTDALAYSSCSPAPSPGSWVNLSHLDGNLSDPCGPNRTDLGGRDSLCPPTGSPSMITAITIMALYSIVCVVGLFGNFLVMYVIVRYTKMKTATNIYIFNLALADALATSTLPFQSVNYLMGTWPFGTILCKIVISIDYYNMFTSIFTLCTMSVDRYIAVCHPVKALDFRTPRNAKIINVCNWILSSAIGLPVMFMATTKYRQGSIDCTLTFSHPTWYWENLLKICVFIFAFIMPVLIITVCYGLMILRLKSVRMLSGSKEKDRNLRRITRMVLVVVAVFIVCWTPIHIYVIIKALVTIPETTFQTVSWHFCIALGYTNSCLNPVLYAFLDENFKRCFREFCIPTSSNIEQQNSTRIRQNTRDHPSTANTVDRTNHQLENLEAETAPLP
T1 sequence (P27338 whole entry): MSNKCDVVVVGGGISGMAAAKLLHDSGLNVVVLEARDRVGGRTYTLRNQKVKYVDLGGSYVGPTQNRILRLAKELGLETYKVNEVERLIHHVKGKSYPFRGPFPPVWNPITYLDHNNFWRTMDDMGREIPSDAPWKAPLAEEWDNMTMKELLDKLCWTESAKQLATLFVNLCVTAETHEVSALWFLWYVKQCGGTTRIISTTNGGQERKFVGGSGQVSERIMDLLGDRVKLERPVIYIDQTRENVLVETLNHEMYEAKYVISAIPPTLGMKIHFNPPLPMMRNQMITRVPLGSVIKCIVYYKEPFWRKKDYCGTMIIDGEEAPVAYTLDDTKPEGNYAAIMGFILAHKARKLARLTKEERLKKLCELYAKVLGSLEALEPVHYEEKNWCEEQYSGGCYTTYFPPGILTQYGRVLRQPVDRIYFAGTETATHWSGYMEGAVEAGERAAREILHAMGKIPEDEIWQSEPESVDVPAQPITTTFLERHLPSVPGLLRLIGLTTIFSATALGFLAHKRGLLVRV
T4 sequence (P08172 whole entry): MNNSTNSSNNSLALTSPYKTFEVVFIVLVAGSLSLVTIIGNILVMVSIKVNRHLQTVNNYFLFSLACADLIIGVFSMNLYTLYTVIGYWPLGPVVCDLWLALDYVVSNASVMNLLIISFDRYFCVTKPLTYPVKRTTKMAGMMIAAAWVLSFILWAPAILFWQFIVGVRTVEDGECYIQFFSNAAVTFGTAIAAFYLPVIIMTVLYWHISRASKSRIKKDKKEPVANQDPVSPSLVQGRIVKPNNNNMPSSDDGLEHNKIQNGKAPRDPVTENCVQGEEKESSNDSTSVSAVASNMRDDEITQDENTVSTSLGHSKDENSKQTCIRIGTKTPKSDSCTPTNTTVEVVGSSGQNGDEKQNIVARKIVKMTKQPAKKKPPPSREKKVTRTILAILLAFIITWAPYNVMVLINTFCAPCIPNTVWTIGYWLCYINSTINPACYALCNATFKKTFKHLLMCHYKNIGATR
T3 sequence (P22199 whole entry): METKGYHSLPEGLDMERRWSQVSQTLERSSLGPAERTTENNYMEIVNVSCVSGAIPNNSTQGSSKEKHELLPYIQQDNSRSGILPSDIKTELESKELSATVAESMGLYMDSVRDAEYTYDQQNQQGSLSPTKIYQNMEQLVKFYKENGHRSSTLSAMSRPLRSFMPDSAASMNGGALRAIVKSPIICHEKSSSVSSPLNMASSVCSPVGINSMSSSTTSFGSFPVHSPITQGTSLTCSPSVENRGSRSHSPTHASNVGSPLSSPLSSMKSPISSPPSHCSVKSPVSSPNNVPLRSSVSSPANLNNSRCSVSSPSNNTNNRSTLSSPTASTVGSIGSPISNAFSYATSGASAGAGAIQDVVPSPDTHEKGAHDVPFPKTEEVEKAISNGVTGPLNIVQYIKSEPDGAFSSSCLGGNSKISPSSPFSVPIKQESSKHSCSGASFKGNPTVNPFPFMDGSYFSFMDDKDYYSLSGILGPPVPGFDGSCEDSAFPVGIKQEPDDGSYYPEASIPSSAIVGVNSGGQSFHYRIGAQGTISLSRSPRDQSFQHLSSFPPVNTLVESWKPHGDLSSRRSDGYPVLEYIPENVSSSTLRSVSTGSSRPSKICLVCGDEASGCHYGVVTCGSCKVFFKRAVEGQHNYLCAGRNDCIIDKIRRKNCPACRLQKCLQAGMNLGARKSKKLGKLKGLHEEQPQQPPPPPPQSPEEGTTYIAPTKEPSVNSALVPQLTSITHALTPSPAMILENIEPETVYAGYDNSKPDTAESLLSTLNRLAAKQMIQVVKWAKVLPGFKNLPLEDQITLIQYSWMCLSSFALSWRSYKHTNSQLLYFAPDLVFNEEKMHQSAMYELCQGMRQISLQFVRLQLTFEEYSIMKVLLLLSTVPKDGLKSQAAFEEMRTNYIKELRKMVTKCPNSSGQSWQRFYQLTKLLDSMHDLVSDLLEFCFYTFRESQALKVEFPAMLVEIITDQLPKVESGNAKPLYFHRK
T6 sequence (Q12809 whole entry): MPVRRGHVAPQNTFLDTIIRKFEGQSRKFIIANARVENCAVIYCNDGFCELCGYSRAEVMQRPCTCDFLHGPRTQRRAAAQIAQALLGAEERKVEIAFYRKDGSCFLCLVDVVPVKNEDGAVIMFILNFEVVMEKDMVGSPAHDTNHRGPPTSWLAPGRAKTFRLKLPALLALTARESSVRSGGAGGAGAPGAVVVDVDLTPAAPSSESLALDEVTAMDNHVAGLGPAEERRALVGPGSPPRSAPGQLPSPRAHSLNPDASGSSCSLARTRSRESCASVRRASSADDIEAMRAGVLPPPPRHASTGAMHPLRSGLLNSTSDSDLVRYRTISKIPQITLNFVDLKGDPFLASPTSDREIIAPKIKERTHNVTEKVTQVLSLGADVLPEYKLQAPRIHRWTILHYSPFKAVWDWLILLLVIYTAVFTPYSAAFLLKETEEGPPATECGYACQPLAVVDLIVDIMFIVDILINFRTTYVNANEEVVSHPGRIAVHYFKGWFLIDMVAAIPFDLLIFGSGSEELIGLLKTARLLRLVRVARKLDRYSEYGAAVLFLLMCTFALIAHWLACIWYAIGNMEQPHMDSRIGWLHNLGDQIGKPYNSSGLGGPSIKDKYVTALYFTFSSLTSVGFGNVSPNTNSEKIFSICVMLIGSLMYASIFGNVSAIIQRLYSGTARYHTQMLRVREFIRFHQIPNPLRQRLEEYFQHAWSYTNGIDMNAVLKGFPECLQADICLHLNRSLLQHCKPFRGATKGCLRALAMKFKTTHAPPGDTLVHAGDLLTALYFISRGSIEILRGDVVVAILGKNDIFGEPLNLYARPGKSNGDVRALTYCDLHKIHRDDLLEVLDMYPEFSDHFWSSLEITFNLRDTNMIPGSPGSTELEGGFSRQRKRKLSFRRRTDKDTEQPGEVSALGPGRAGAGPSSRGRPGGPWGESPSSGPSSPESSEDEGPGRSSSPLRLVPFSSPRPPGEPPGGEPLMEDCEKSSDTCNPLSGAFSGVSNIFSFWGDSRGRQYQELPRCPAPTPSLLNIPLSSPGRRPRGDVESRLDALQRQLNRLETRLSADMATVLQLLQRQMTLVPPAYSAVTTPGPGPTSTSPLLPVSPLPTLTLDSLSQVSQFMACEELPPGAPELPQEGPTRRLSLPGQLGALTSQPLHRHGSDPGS
T2 sequence (P08588 whole entry): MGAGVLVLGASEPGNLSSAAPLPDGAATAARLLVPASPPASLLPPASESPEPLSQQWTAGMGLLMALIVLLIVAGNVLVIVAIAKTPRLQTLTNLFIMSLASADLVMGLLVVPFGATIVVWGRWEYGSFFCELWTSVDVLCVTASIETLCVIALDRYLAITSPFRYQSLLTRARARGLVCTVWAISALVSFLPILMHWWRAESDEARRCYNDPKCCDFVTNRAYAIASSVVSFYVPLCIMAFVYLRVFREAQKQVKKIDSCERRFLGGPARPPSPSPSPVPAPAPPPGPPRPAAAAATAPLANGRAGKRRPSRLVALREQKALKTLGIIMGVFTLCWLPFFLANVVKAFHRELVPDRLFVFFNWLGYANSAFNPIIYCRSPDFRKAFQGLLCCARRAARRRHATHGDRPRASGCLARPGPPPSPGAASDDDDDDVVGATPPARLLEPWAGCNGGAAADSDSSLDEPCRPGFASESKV

With `C[C@]12CC[C@H](O)C[C@H]1CCC1C2CC[C@]2(C)[C@@H](c3c[nH]cn3)CC[C@]12O` (stereo partly drawn) [CVie 101, 3β-hydroxy-5β-10β-methyl-13β-methyl-14β-hydroxy-17β-(imidazol-4-yl)androstane] the “short term APD variability (STV)” value ([1]; 0.5-1-2-4 Hz separately or pooled, FIG. 3) was “unaffected”, the “diastolic membrane potential (Ediast)” value ([1]; 0.5-1-2-4 Hz, FIG. 2A) was “did not affect” and the “maximum depolarization velocity (dV/dtmax)” value ([1]; FIG. 2B) was “did not affect”. The “action potential duration (APD at 90%, 50% and 20% of repolarization) and its cycle-length dependency” value ([1]; FIG. 2C) was “did not affect”, the “time constant of APD adaptation after a step change in cycle length” value ([1]; FIG. 2D) was “not shortened” and the inhibition at 10 µM [2] was 4%. For the same compound, the inhibition at 10 µM [3] was -4%, the inhibition at 10 µM [4] was 6% and the “% inhib” value [5] was −8%. The inhibition at 10 µM [6] was 7%, the inhibition at 10 µM [7] was 19% and the inhibition at 10 µM [8] was 4%.
